The results in this text go back to patent US6838472B2, “Substituted urea retinoid agonists” (Syntex (U.S.A.) LLC, priority 2001, dated 2005).

One may read the melting point as the temperature of the solid-liquid transition.

Where “and” joins values, the source holds several entries; their conditions need not be identical. Equal entries are not always repeated.

With `CC1(C)CCC(C)(C)c2cc(N(CCc3ccccc3)C(=O)Nc3ccc(C(=O)O)cc3)ccc21` [Compound 5, 4-[3-phenethyl-3-(5,5,8,8-tetramethyl-5,6,7,8-tetrahydro-naphthalen-2-yl)-ureido]-benzoic acid], the melting point was 223 to 225 °C and 223 to 224.9 °C.
In the case of `CC1(C)CCC(C)(C)c2cc(N(Cc3ccc(F)cc3)C(=O)Nc3ccc(C(=O)O)cc3)ccc21` [Compound 19, 4-[3-(4-fluorobenzyl)-3-(5,5,8,8-tetramethyl-5,6,7,8-tetrahydro-naphthalen-2-yl)-ureido]-benzoic acid], the melting point was 143 to 146 °C and 143.1 to 145.9 °C.
On to `CC1(C)CCC(C)(C)c2cc(N(Cc3ccc(Cl)cc3)C(=O)Nc3ccc(C(=O)O)cc3)ccc21` [Compound 21, 4-[3-(4-chlorobenzyl)-3-(5,5,8,8-tetramethyl-5,6,7,8-tetrahydro-naphthalen-2-yl)-ureido]-benzoic acid], for which the melting point is 126 to 133.1 °C and 126 to 133 °C.
In the case of `COc1ccc(CN(C(=O)Nc2ccc(C(=O)O)cc2)c2ccc3c(c2)C(C)(C)CCC3(C)C)cc1` [Compound 23, 4-[3-(4-methoxybenzyl)-3-(5,5,8,8-tetramethyl-5,6,7,8-tetrahydro-naphthalen-2-yl)-ureido]-benzoic acid] it was 117 to 121 °C and 116.8 to 120.8 °C; in that of `CC1(C)CCC(C)(C)c2cc(N(Cc3cccs3)C(=O)Nc3ccc(C(=O)O)cc3)ccc21` [Compound 31, 4-[3-(5,5,8,8-tetramethyl-5,6,7,8-tetrahydro-naphthalen-2yl)-3-thiophen-2-ylmethyl-ureido]-benzoic acid], 167 to 170 °C and 167.1 to 170.1 °C.
Take `CCOCCN(C(=O)Nc1ccc(C(=O)O)cc1)c1ccc2c(c1)C(C)(C)CCC2(C)C` [Compound 33, 4-[3-(2-ethoxy-ethyl)-3-(5,5,8,8-tetramethyl-5,6,7,8-tetrahydro-naphthalen-2-yl)-ureido]-benzoic acid]: the melting point was 82 to 85 °C.
`CC1(C)CCC(C)(C)c2cc(N(CCCCOCc3ccccc3)C(=O)Nc3ccc(C(=O)O)cc3)ccc21` [Compound 41, 4-[3-(4-benzyloxy-butyl)-3-(5,5,8,8-tetramethyl-5,6,7,8-tetrahydro-naphthalen-2-yl)-ureido]-benzoic acid] registered a melting point of 158 to 162 °C.
In the case of `CCCCCN(C(=O)Nc1ccc2c(c1)C(C)(C)CCC2(C)C)c1ccc(C(=O)O)cc1` [Compound 42, 4-[1-pentyl-3-(5,5,8,8-tetramethyl-5,6,7,8-tetrahydro-naphthalen-2-yl)-ureido]-benzoic acid] it was 201 to 202 °C.
The molecule `CCCCCN(C(=O)Nc1ccc(C(=O)O)cn1)c1ccc2c(c1)C(C)(C)CCC2(C)C` [Compound 49, 6-[3-pentyl-3-(5,5,8,8-tetramethyl-5,6,7,8-tetrahydro-naphthalen-2-yl) -ureido]-nicotinic acid] showed a melting point of 175 to 179.5 °C.
As to `Cc1cc(CN(C(=O)Nc2ccc(C(=O)O)cc2)c2ccc3c(c2)C(C)(C)CCC3(C)C)no1` [Compound 57, 4-[3-(5-methyl-isoxazol-3-ylmethyl)-3-(5,5,8,8-tetramethyl-5,6,7,8-tetrahydro-naphthalen-2-yl)-ureido]-benzoic acid], the melting point was 188 to 193 °C and 188.2 to 193 °C.
In the case of `CC1(C)CCC(C)(C)c2cc(N(CCCCO)C(=O)Nc3ccc(C(=O)O)cc3)ccc21` [Compound 71, 4-[3-(4-hydroxy-butyl)-3-(5,5,8,8-tetramethyl-5,6,7,8-tetrahydro-naphthalen-2-yl)-ureido]-benzoic acid] it was 124 to 125 °C; in that of `CCN(C(=O)N(CC)c1ccc2c(c1)C(C)(C)CCC2(C)C)c1ccc(C(=O)O)cc1` [Compound 73, 4-[1,3-diethyl-3-(5,5,8,8-tetramethyl-5,6,7,8-tetrahydro-naphthalen-2-yl)-ureido]-benzoic acid], 169 to 172 °C.
